CC(=O)OCC(=O)[C@@]12N=C(C)O[C@@H]1C[C@H]1[C@@H]3CCC4=CC(=O)C=C[C@]4(C)[C@H]3[C@@H](O)C[C@@]12C
solubility (mole fraction)
Details | in acetone | in ethanol | in ethyl acetate | in isopropanol
293.15 K | 0.00618 | 0.00167 | 0.00331 | 0.00127
298.15 K | 0.00674 | 0.002 | 0.00361 | 0.00161
303.15 K | 0.00735 | 0.00236 | 0.00393 | 0.00202
308.15 K | 0.00797 | 0.00279 | 0.00426 | 0.00249
313.15 K | 0.00861 | 0.00334 | 0.00465 | 0.00305
318.15 K | 0.00946 | 0.00397 | 0.0051 | 0.0038
323.15 K | 0.0104 | 0.00477 | 0.00559 | 0.00456
328.15 K | – | 0.00566 | 0.0061 | 0.00566
333.15 K | – | 0.00663 | 0.00668 | 0.00683
338.15 K | – | 0.00795 | 0.00737 | 0.00813
343.15 K | – | 0.00957 | 0.00805 | 0.00973
348.15 K | – | – | – | 0.0121
